Assay results taken from US9303017B2, “2,5-disubstituted-pyridyl nicotinic ligands, and methods of use thereof” (Georgetown University, priority 2011, dated 2016).
Read-outs that look alike come from different tables or passages of the source.

How the values were obtained:
[1] = target: α3β4 nAChR (Rattus norvegicus (Rat), UniProt P04757+P12392); assay: [3H]-epibatidine competition binding, α3β4
Experimental: (§1) In Vitro Binding Affinities for nAChR Subtypes. […] To determine selectivities of these compounds in binding assays among the three predominant nAChR subtypes, α3β4, α4β2 and α7, the ratios of Ki values (α3β4/α4β2 and α7/α4β2) were determined.
(§2) Cell Lines and Cell Culture. The cell lines expressing defined rat nAChR subtypes were established previously by stably transfecting HEK 293 cells with rat nAChR subunit genes. The cell line expressing human α4β2 nAChRs, YXα4β2H1, was established recently. These cell lines were maintained in minimum essential medium (MEM) supplemented with 10% fetal bovine serum, 100 units/mL penicillin G, […] and selective antibiotics at 37° C. with 5% CO2 in a humidified incubator. Fetal bovine serum was provided by Gemini Bio-Products (Woodland, Calif.). Tissue culture medium and antibiotics were obtained from Invitrogen Corporation (Carlsbad, Calif.), unless otherwise stated.
(§3) Briefly, cultured cells at >80% confluence were removed from their flasks (80 cm^2) with a disposable cell scraper and placed in 10 mL of 50 mM Tris.HCl buffer (pH 7.4, 4° C.). The cell suspension was centrifuged at 10,000×g for 5 min and the pellet was collected. The cell pellet was then homogenized in 10 mL buffer with a polytron homogenizer and centrifuged at 36,000 g for 10 min at 4° C. The membrane pellet was resuspended in fresh buffer, and aliquots of the membrane preparation were used for binding assays. […] Bound and free ligands were separated by vacuum filtration through Whatman GF/C filters treated with 0.5% polyethylenimine. The filter-retained radioactivity was measured by liquid scintillation counting. Specific binding was defined as the difference between total binding and nonspecific binding. Data from competition binding assays were analyzed using Prism 5 (GraphPad Software, San Diego, Calif.).
(§4) Pharmacological Properties. We measured the in vitro binding affinities of the ligands for defined receptor subtypes (α2β2, α2β4, α3β2, α3β4, α4β2, α4β4, α6β2, α6β4, and α7) expressed in stably transfected cell lines. […] Rat forebrain homogenates were included to allow comparison between the heterologous and native α4β2 and α7 nAChRs. See Table 1 for binding affinity values (Ki) of the ligands at the three major nAChR subtypes (α3β4. α4β2 and α7).

[2] = target: α4β2 nAChR (Rattus norvegicus (Rat), UniProt P09483+P12390); assay: biochemical; assay type: binding; details: for Ki: read-out: Ki α4β2; for Ki Ratio α3β4/α4β2: selectivity for α4β2 over α3β4; for Ki Ratio α7/α4β2: selectivity for α4β2 over α7
Experimental: as §1, §2, §3, §4

[3] = target: α7 nAChR (Rattus norvegicus (Rat), UniProt Q05941); assay type: binding
Experimental: as §1, §2, §3, §4

[4] = target: rat α3β4 nAChRs (Rattus norvegicus (Rat), UniProt P04757+P12392); assay: 86Rb+ efflux assay (activation and desensitization), α3β4; assay type: cell-based
Experimental: (§5) In Vitro Effects on nAChR Function. […] Their agonist activities were assessed by measuring stimulated ^86Rb^+ efflux from stably transfected cells, either expressing human α4β2 nAChRs or rat α3β4 receptors.
as §2
(§6) ^86Rb^+ Efflux Assay. Functional properties of compounds at nAChRs expressed in the transfected cells were measured using ^86Rb^+ efflux assays as described previously. In brief, cells expressing human α4β2 or rat α3β4 nAChRs were plated into 24-well plates coated with poly-D-lysine. The plated cells were grown at 37° C. for 18 to 24 hour to reach 85-95% confluence. The cells were then incubated in growth medium (0.5 mL/well) containing ^86Rb^+ (2 μCi/mL) for 4 hour at 37° C. The loading mixture was then aspirated, and the cells were washed four times with 1 mL buffer (15 mM HEPES, 140 mM NaCl, 2 mM KCl, 1 mM MgSO4, 1.8 mM CaCl2, 11 mM Glucose, pH 7.4). One mL of buffer with or without compounds to be tested was then added to each well. After incubation for 2 min, the assay buffer was collected for measurements of ^86Rb^+ released from the cells. Cells were then lysed by adding 1 mL of 100 mM NaOH to each well, and the lysate was collected for determination of the amount of ^86Rb^+ that was in the cells at the end of the efflux assay. Radioactivity of assay samples and lysates was measured by liquid scintillation counting. Total loading (cpm) was calculated as the sum of the assay sample and the lysate of each well. The amount of ^86Rb^+ efflux was expressed as a percentage of ^86Rb^+ loaded. […] For obtaining EC50 and Emax values, stimulation curves were constructed in which 8 different concentrations of a ligand were included in the assay. […] EC50, Emax and IC50(10′) values were determined by nonlinear least-squares regression analyses (GraphPad, San Diego, Calif.).
(§7) The functional properties of the ligands were determined by ^86Rb^+ efflux assays in cells expressing α3β4 and α4β2 nAChR subtypes. The functional activity of each ligand was measured for its agonism, antagonism and desensitization ability. Agonist activity for each of the ligands was tested at eight different concentrations. […] The full concentration-effect curves generated potency (EC50) and efficacy (Emax) of each ligand. […] We tested each ligand for antagonist activity at eight concentrations. The potency (IC50(0′)) of each ligand as an antagonist was derived from the full concentration-effect curves.

[5] = target: human α4β2 nAChRs (Homo sapiens (Human), UniProt P17787+P43681); assay: 86Rb+ efflux assay (activation and desensitization), α4β2; assay type: cell-based; details: for IC50: desensitization
Experimental: as §5, §2, §6, §7

[6] = target: α4β4 nAChR (Rattus norvegicus (Rat), UniProt P09483+P12392); assay: [3H]-epibatidine competition binding, α4β4; details: Table 1; mean of 3 to 5 measurements
Experimental: as §1
as §2, with “Tissue culture medium and antibiotics were obtained from Invitrogen Corporation (Carlsbad, Calif.), unless otherwise stated.” left out
(§8) Briefly, cultured cells at >80% confluence were removed from their flasks (80 cm^2) with a disposable cell scraper and placed in 10 mL of 50 mM Tris.HCl buffer (pH 7.4, 4° C.). […] The filter-retained radioactivity was measured by liquid scintillation counting. […] Data from competition binding assays were analyzed using Prism 5 (GraphPad Software, San Diego, Calif.).
(§9) Pharmacological Properties. We measured the in vitro binding affinities of the ligands for defined receptor subtypes (α2β2, α2β4, α3β2, α3β4, α4β2, α4β4, α6β2, α6β4, and α7) expressed in stably transfected cell lines. […]

[7] = target: α3β2 nAChR (Rattus norvegicus (Rat), UniProt P04757+P12390); assay: [3H]-epibatidine competition binding, α3β2; details: Table 1; mean of 3 to 5 measurements
Experimental: as §1
as §2, with “Tissue culture medium and antibiotics were obtained from Invitrogen Corporation (Carlsbad, Calif.), unless otherwise stated.” left out
as §8, §9

[8] = target: α2β2 nAChR (Rattus norvegicus (Rat), UniProt P12389+P12390); assay: [3H]-epibatidine competition binding, α2β2; details: Table 1; mean of 3 to 5 measurements
Experimental: as §1
as §2, with “Tissue culture medium and antibiotics were obtained from Invitrogen Corporation (Carlsbad, Calif.), unless otherwise stated.” left out
as §8, §9

[9] = target: α2β4 nAChR (Rattus norvegicus (Rat), UniProt P12389+P12392); assay: [3H]-epibatidine competition binding, α2β4; details: Table 1; mean of 3 to 5 measurements
Experimental: as §1
as §2, with “Tissue culture medium and antibiotics were obtained from Invitrogen Corporation (Carlsbad, Calif.), unless otherwise stated.” left out
as §8, §9

[10] = Table 1, mean of 3 to 5 measurements
[11] = read-out: IC50(10′) α3β4 nAChRs
[12] = agonist efficacy normalized to Emax of nicotine, ND = no significant stimulated efflux detected
[13] = 10 min pre-incubation before 100 μM nicotine, Table 2, read-out: IC50(10′) α4β2 nAChRs
[14] = 10 min pre-treatment, Table 3 (Example 4), read-out: IC50(10′) α4β2

With CCCCC#Cc1cnc(C)c(OC[C@H]2CCN2)c1 [(R)-15, (R)-3-(azetidin-2-ylmethoxy)-5-(hex-1-ynyl)-2-methylpyridine] the Ki [1, 10] was 200 µM, the Ki [2, 10] was 0.74 µM and the “Ki Ratio α3β4/α4β2” value [2] was 270. The “Ki Ratio α7/α4β2” value [2] was 220, the Ki [3, 10] was 160 µM and the Ki ([3]; Table 3 (Example 4)) was 120 µM.

In the case of CCCCC#Cc1cnc(C)c(OC[C@H]2CCCN2)c1 [(R)-16, (R)-5-(hex-1-ynyl)-2-methyl-3-(pyrrolidin-2-ylmethoxy) pyridine], the Ki ([1]; Table 3 (Example 4)) is reported as 22 µM, the Ki ([2]; Table 3 (Example 4)) is reported as 9.9 µM and the “Ki Ratio α3β4/α4β2” value [2] is reported as 22. The “Ki Ratio α7/α4β2” value [2] was 11 and the Ki [3, 10] was 110 µM.

Work on CCCCC#Cc1cnc(C)c(OC[C@@H]2CCCN2)c1 [(S)-16, (S)-5-(hex-1-ynyl)-2-methyl-3-(pyrrolidin-2-ylmethoxy)pyridine] yielded a Ki ([1]; Table 3 (Example 4)) of 94 µM, an IC50 [4, 11] of 6.4 µM and a Ki ([2]; Table 3 (Example 4)) of 0.073 µM. The Ki ([3]; Table 3 (Example 4)) was 81 µM, the “Emax α4β2 nAChRs” value [5, 12] was “didn't show detectable agonist activity” and the IC50 [5, 13] was 1.6 µM.

Cc1ncc(C#CCCCCO)cc1OC[C@@H]1CCN1 [(S)-17, (S)-6-(5-(azetidin-2-ylmethoxy)-6-methylpyridin-3-yl)hex-5-yn-1-ol] gave a Ki ([1]; Table 3 (Example 4)) of 250 µM, an IC50 ([4]; read-out: IC50(10′) α3β4) of 50 µM and an IC50 [4, 11] of over 10 µM. The Ki [2, 10] was 0.0043 µM, the “reduction in binding affinity for α4β2 nAChRs” value ([2]; relative to Sazetidine-A) was 70 fold and the “Ki Ratio α3β4/α4β2” value [2] was 70,000. The “Ki Ratio α7/α4β2” value [2] was 40,000, the Ki ([3]; Table 3 (Example 4)) was 170 µM and the EC50 ([5]; agonist activity, ND = no significant stimulated efflux detected) was 0.063 µM. It also gave an Emax ([5]; agonist efficacy normalized to Emax of nicotine, ND = no significant stimulated efflux detected, read-out: Emax α4β2 nAChRs) of under 20%, an IC50 [5, 14] of 0.042 µM and an IC50 [5, 13] of 0.051 µM.

Cc1ncc(C#CCCCCF)cc1OC[C@@H]1CCN1 [(S)-22, (S)-3-(azetidin-2-ylmethoxy)-5-(6-fluorohex-1-ynyl)-2-methylpyridine] was tested, and the Ki [6] was 3 µM, the Ki [7] was 0.23 µM and the Ki [8] was 0.0087 µM. It also gave a Ki [1, 10] of 150 µM, a Ki ([1]; Table 3 (Example 4)) of 130 µM and a Ki [9] of 24 µM. It also gave an IC50 ([4]; read-out: IC50(10′) α3β4) of 13 µM, an IC50 [4, 11] of over 10 µM and a Ki [3, 10] of 150 µM. The Ki ([3]; Table 3 (Example 4)) was 150 µM, the “Emax α4β2 nAChRs” value [5, 12] was “didn't show detectable agonist activity” and the IC50 [5, 14] was 0.14 µM. It also gave an IC50 [5, 13] of 0.13 µM.
